Reference: patent publication EP0600782A1, “C-11 modified pradimicin derivatives” (priority 1992, dated 1994)
Values after ≈ are worked out from the molar mass of the structure shown.

Legend:
[1] = test system: Candida tropicalis IFO10241; test: In vitro antifungal activity (MIC), agar dilution on yeast morphology agar; format: cell-based; settings: YMA, 0.06M phosphate (pH 7.0), 28°C, 40 hours, read-out: MIC Ct-12
Protocol: (§1) The in vitro antifungal activity (MIC) of the compounds of the invention was determined on yeast morphology agar (YMA, Difco Laboratories, USA), buffered with 0.06M phosphate (pH 7.0). Nine parts of molten agar were combined with one part of antibiotic dilution in petri dishes. A 5-µl suspension containing 2x10⁶ cells/ml was spotted on the surface of the agar plates. The plates were incubated at 28°C and MICs were recorded after 40 hours of the incubation. All of the 11-hydroxy derivatives of Formula I-I are active against a wide range of fungi.

[2] = test system: Cryptococcus neoformans IAM4514; test: as above; format: cell-based; settings: YMA, 0.06M phosphate (pH 7.0), 28°C, 40 hours, read-out: MIC Cn-2
Protocol: as §1

[3] = test system: Candida albicans A9540; test: as above; format: cell-based; settings: YMA, 0.06M phosphate (pH 7.0), 28°C, 40 hours, read-out: MIC Ca-4
Protocol: as §1

[4] = test system: Strain AA 3798; test: Antibiotic susceptibility of the producing strain, antibiotic disks; format: cell-based, unidentified actinomycete; settings: yeast-glucose-malt agar, 37°C, 4 days
Protocol: Antibiotic susceptibility of strain AA 3798 was examined using antibiotic disks (Tridisk, Eiken Chemical Co., Ltd). The disks were placed onto the surface of yeast-glucose-malt agar (yeast extract 0.1%, glucose 1%, malt extract 0.1%, CaCl₂·2H₂O 0.05%, and agar 1.5%) which had been seeded by strain AA 3798 (4% inoculum), and the plates were then incubated at 37°C for 4 days.

Compound	MIC [1]	MIC [2]	MIC [3]	also measured
CN[C@@H]1[C@H](O[C@@H]2OC[C@@H](O)[C@H](O)[C@H]2O)[C@@H](O)[C@H](O[C@H]2c3cc(C)c(C(=O)N[C@H](C)C(=O)O)c(O)c3-c3c(cc4c(c3O)C(=O)c3cc(OC)cc(O)c3C4=O)[C@@H]2O)O[C@@H]1C [Pradimicin A, reference compound]	12.5 µg/mL (≈ 14.9 µM)	1.6 µg/mL (≈ 1.9 µM)	6.3 µg/mL (≈ 7.49 µM)	–
CCn1cc(C(=O)O)c(=O)c2cc(F)c(N3CCNCC3)cc21 [norfloxacin]	–	–	–	Antibiotic susceptibility of strain AA 3798 ([4]; disk 2 µg): susceptible
colistin	–	–	–	Antibiotic susceptibility of strain AA 3798 ([4]; disk 50 U): susceptible
CC1=C(C(=O)O)N2C(=O)[C@@H](NC(=O)[C@H](N)c3ccccc3)[C@H]2SC1 [cephalexin]	–	–	–	Antibiotic susceptibility of strain AA 3798 ([4]; disk 10 µg): resistance
polymyxin B	–	–	–	Antibiotic susceptibility of strain AA 3798 ([4]; disk 300 U): resistance
gentamicin	–	–	–	Antibiotic susceptibility of strain AA 3798 ([4]; disk 5 µg): resistance
Cc1cc2c(c(O)c1C(=O)NCC(=O)O)-c1c(cc3c(c1O)C(=O)c1cc(OCCF)cc(O)c1C3=O)[C@H](O)[C@H]2O[C@@H]1O[C@H](C)[C@H](O)[C@H](O[C@@H]2OC[C@@H](O)[C@H](O)[C@H]2O)[C@H]1O [IIB, 11-O-Dexylosyl-11-O-(2-fluoroethyl)pradimicin T1]	6.3 µg/mL (≈ 7.45 µM)	1.6 µg/mL (≈ 1.89 µM)	3.1 µg/mL (≈ 3.67 µM)	–
CCC[C@@H]1C[C@@H](C(=O)N[C@@H]([C@H]2O[C@H](SC)[C@H](O)[C@@H](O)[C@H]2O)[C@@H](C)O)N(C)C1 [lincomycin]	–	–	–	Antibiotic susceptibility of strain AA 3798 ([4]; disk 15 µg): resistance
CCn1cc(C(=O)O)c(=O)c2ccc(C)nc21 [nalidixic acid]	–	–	–	Antibiotic susceptibility of strain AA 3798 ([4]; disk 15 µg): resistance
Cc1cc2c(c(O)c1C(=O)NC(CO)C(=O)O)-c1c(cc3c(c1O)C(=O)c1cc(O)cc(O)c1C3=O)C(O)C2OC1OC(C)C(N(C)C)C(OC2OCC(O)C(O)C2O)C1O (stereo not drawn) [IE, 11-O-Demethyl-BMS-181182]	25 µg/mL (≈ 29.2 µM)	6.3 µg/mL (≈ 7.35 µM)	6.3 µg/mL (≈ 7.35 µM)	–
Cc1cc2c(c(O)c1C(=O)NC(C)C(=O)O)-c1c(cc3c(c1O)C(=O)c1cc(O)cc(O)c1C3=O)C(O)C2OC1OC(C)C(N)C(OC2OCC(O)C(O)C2O)C1O (stereo not drawn) [IC, 11-O-Demethylpradimicin C]	12.5 µg/mL (≈ 15.4 µM)	1.6 µg/mL (≈ 1.97 µM)	6.3 µg/mL (≈ 7.75 µM)	–
CNC1C(C)OC(OC2c3cc(C)c(C(=O)NC(C)C(=O)O)c(O)c3-c3c(cc4c(c3O)C(=O)c3cc(O)cc(O)c3C4=O)C2O)C(O)C1OC1OCC(O)C(O)C1O (stereo not drawn) [Compound IA, 11-O-Demethylpradimicin A]	25 µg/mL (≈ 30.2 µM)	3.1 µg/mL (≈ 3.75 µM)	6.3 µg/mL (≈ 7.62 µM)	–
CO[C@@H]1[C@@H](O[C@@H]2O[C@H](C)[C@@H](O[C@H]3C[C@@](C)(O)[C@@H](OC(=O)CC(C)C)[C@H](C)O3)[C@H](N(C)C)[C@H]2O)[C@@H](CC=O)C[C@@H](C)[C@@H](O)/C=C/C=C/C[C@@H](C)OC(=O)C[C@H]1OC(C)=O [josamycin]	–	–	–	Antibiotic susceptibility of strain AA 3798 ([4]; disk 15 µg): resistance
C[C@@H]1O[C@@H]1P(=O)(O)O [fosfomycin]	–	–	–	Antibiotic susceptibility of strain AA 3798 ([4]; disk 50 µg): resistance
C=CCOc1cc(O)c2c(c1)C(=O)c1c(cc3c(c1O)-c1c(cc(C)c(C(=O)NCC(=O)O)c1O)[C@H](O[C@@H]1O[C@H](C)[C@H](O)[C@H](O[C@@H]4OC[C@@H](O)[C@H](O)[C@H]4O)[C@H]1O)[C@H]3O)C2=O [IIC, 11-O-Allyl-11-O-dexylosylpradimicin T1]	12.5 µg/mL (≈ 14.9 µM)	3.1 µg/mL (≈ 3.69 µM)	6.3 µg/mL (≈ 7.5 µM)	–
Cc1cc2c(c(O)c1C(=O)NC(CO)C(=O)O)-c1c(cc3c(c1O)C(=O)c1cc(O)cc(O)c1C3=O)C(O)C2OC1OC(C)C(O)C(OC2OCC(O)C(O)C2O)C1O (stereo not drawn) [IF, 11-O-Demethyl-BMS-181184]	12.5 µg/mL (≈ 15.1 µM)	12.5 µg/mL (≈ 15.1 µM)	6.3 µg/mL (≈ 7.59 µM)	–
Cc1cc2c(c(O)c1C(=O)NCC(=O)O)-c1c(cc3c(c1O)C(=O)c1cc(N(C)C)cc(O)c1C3=O)[C@H](O)[C@H]2O[C@@H]1O[C@H](C)[C@H](O)[C@H](O[C@@H]2OC[C@@H](O)[C@H](O)[C@H]2O)[C@H]1O [IIJ, 11-Dexylosyloxy-11-dimethylaminopradimicin T1]	> 100 µg/mL	50 µg/mL (≈ 60.5 µM)	12.5 µg/mL (≈ 15.1 µM)	–
NC[C@H]1O[C@H](O[C@H]2[C@H](O)[C@@H](O[C@H]3O[C@H](CO)[C@@H](O)[C@H](N)[C@H]3O)[C@H](N)C[C@@H]2N)[C@H](N)C[C@@H]1O [tobramycin]	–	–	–	Antibiotic susceptibility of strain AA 3798 ([4]; disk 10 µg): resistance
Cc1cc2c(c(O)c1C(=O)NCC(=O)O)-c1c(cc3c(c1O)C(=O)c1cc(OCc4ccccc4)cc(O)c1C3=O)[C@H](O)[C@H]2O[C@@H]1O[C@H](C)[C@H](O)[C@H](O[C@@H]2OC[C@@H](O)[C@H](O)[C@H]2O)[C@H]1O [IID, 11-O-Benzyl-11-O-dexylosylpradimicin T1]	> 100 µg/mL	12.5 µg/mL (≈ 14 µM)	> 100 µg/mL	–
CCOc1cc(O)c2c(c1)C(=O)c1c(cc3c(c1O)-c1c(cc(C)c(C(=O)NCC(=O)O)c1O)[C@H](O[C@@H]1O[C@H](C)[C@H](O)[C@H](O[C@@H]4OC[C@@H](O)[C@H](O)[C@H]4O)[C@H]1O)[C@H]3O)C2=O [IIA, 11-O-Dexylosyl-11-O-ethylpradimicin T1]	12.5 µg/mL (≈ 15.1 µM)	1.6 µg/mL (≈ 1.93 µM)	3.1 µg/mL (≈ 3.75 µM)	–
CC[C@H]1OC(=O)[C@H](C)[C@@H](O[C@H]2C[C@@](C)(OC)[C@@H](O)[C@H](C)O2)[C@H](C)[C@@H](O[C@@H]2O[C@H](C)C[C@H](N(C)C)[C@H]2O)[C@](C)(O)C[C@@H](C)C(=O)[C@H](C)[C@@H](O)[C@]1(C)O [erythromycin]	–	–	–	Antibiotic susceptibility of strain AA 3798 ([4]; disk 10 µg): resistance
Cc1cc2c(c(O)c1C(=O)NCC(=O)O)-c1c(cc3c(c1O)C(=O)c1cc(C(N)=O)cc(O)c1C3=O)[C@H](O)[C@H]2O[C@@H]1O[C@H](C)[C@H](O)[C@H](O[C@@H]2OC[C@@H](O)[C@H](O)[C@H]2O)[C@H]1O [IIK, 11-Carbamoyl-11-dexylosyloxy pradimicin T1]	25 µg/mL (≈ 30.2 µM)	6.3 µg/mL (≈ 7.62 µM)	12.5 µg/mL (≈ 15.1 µM)	–
O=C(N[C@H](CO)[C@H](O)c1ccc([N+](=O)[O-])cc1)C(Cl)Cl [chloramphenicol]	–	–	–	Antibiotic susceptibility of strain AA 3798 ([4]; disk 10 µg): susceptible
Cc1cc2c(c(O)c1C(=O)NCC(=O)O)-c1c(cc3c(c1O)C(=O)c1cc(C#N)cc(O)c1C3=O)[C@H](O)[C@H]2O[C@@H]1O[C@H](C)[C@H](O)[C@H](O[C@@H]2OC[C@@H](O)[C@H](O)[C@H]2O)[C@H]1O [IIL, 11-Cyano-11-dexylosyloxy pradimicin T1]	25 µg/mL (≈ 30.9 µM)	6.3 µg/mL (≈ 7.79 µM)	12.5 µg/mL (≈ 15.5 µM)	–
CC1(C)S[C@@H]2[C@H](NC(=O)[C@H](C(=O)O)c3ccsc3)C(=O)N2[C@H]1C(=O)O [ticarcillin]	–	–	–	Antibiotic susceptibility of strain AA 3798 ([4]; disk 2 µg): susceptible
CNC1C(C)OC(OC2c3cc(C)c(C(=O)NC(C)C(=O)O)c(O)c3-c3c(cc4c(c3O)C(=O)c3cccc(O)c3C4=O)C2O)C(O)C1OC1OCC(O)C(O)C1O (stereo not drawn) [IIG, 11-Demethoxypradimicin A]	12.5 µg/mL (≈ 15.4 µM)	1.6 µg/mL (≈ 1.97 µM)	6.3 µg/mL (≈ 7.77 µM)	–
O=C(O)[C@H]1/C(=C/CO)O[C@@H]2CC(=O)N21 [clavulanic acid]	–	–	–	Antibiotic susceptibility of strain AA 3798 ([4]; disk 1 µg): susceptible
Cc1cc2c(c(O)c1C(=O)NCC(=O)O)-c1c(cc3c(c1O)C(=O)c1cccc(O)c1C3=O)[C@H](O)[C@H]2O[C@@H]1O[C@H](C)[C@H](O)[C@H](O[C@@H]2OC[C@@H](O)[C@H](O)[C@H]2O)[C@H]1O [III, 11-Dexylosyloxypradimicin T1]	12.5 µg/mL (≈ 16 µM)	6.3 µg/mL (≈ 8.04 µM)	6.3 µg/mL (≈ 8.04 µM)	–
CC1(C)S[C@@H]2[C@H](NC(=O)[C@H](N)c3ccccc3)C(=O)N2[C@H]1C(=O)O [ampicillin]	–	–	–	Antibiotic susceptibility of strain AA 3798 ([4]; disk 20 µg): resistance
